Columns and labels:
[1] = Plasma pharmacokinetics of TRA, ponatinib and metabolites after a single oral 45-mg [14C]ponatinib dose; conditions: for time postdose at which C max / maximal levels in plasma were observed: single oral 45-mg dose, M23 by radiochromatography; for concentration at 144 h: oral
Description: The subject release criterion was defined as follows: the combined urine and fecal radioactivity excretion for two consecutive days should fall below 1% of the dose administered.
Detailed procedures on sample collection, storage, and shipment are described in Online Resource 1. […] Fecal homogenates were prepared by adding water (four times the feces weight) and homogenizing.
TRA analysis was carried out at ABC Laboratories. The radioactivity in plasma (duplicate per time point) and urine samples (triplicate per time point) was quantitated by direct counting in a Beckman LS6000SC or LS6500 liquid scintillation counter (PerkinElmer Life and Analytical Sciences, Boston, MA, USA). Whole blood (duplicate per time point) and fecal homogenate (triplicate per time point) samples were oxidized, and the resultant ^14CO2 was trapped in Carbosorb (Calgon Carbon Corporation, Pittsburgh, PA, USA) in combination with Permafluor, followed by liquid scintillation counting to determine the radioactivity. Individual samples were counted for 5 min for whole blood and fecal matrices, and 10 min for plasma and urine matrices. Predose blood, plasma, urine, and feces samples served as respective control samples to determine and subtract the background radioactivity in the analysis.
M14 was quantitated using a different LC/MS/MS method (Online Resource 2). The pharmacokinetic analysis was carried out using WinNonlin® v6.4 (Pharsight Corp., Mountain View, CA, USA).
Aliquots of 30 µl of calibration standards, quality controls, and incurred plasma samples were transferred into a 96-well plate. Then 150 µl of ice-cold acetonitrile containing 50 ng/ml of AP30376 (d6-AP24600, internal standard) were added. The 96-well plate was vortexed for 10 min and then centrifuged at 4750 rpm for 20 min at 4°C. 100 µl aliquots of the supernatants were transferred into another 96-well plate and the samples were analyzed by liquid chromatography tandem mass spectrometry.

[2] = Metabolite profiling of plasma (HPLC-radiochromatography); format: in vivo, human; conditions: % of TRA
Description: For each subject, a 0–24 h pooled plasma sample was prepared according to the scheme outlined in the literature. In addition, several pooled plasma samples across all subjects were prepared at these time points: 5, 10, 12, […], and 48 h, and every 24 h thereafter until 240 h.
All pooled 0–24, 5, 10, 12, and 24 h plasma samples were processed as follows. […] The samples were vortexed for 30 min and centrifuged at 4500g at 4 °C for 6 min. The supernatants were transferred into new polypropylene tubes and kept on ice. The resulting plasma protein pellets were extracted twice to ensure good recovery and the extracts were combined. The combined extracts were loaded onto Ostro sample preparation plates (Waters Corporation, Milford, MA, USA), dried, eluted with 0.2 mL of cold acetonitrile, and all eluates were collected and evaporated under nitrogen (TurboVap LV; Caliper Life Sciences, Hopkinton, MA, USA). The dry residues were reconstituted in 0.1 mL of methanol, and a 0.005-mL aliquot was removed for determination of radioactivity. The remainder of the supernatants were transferred to high-performance liquid chromatography (HPLC) vials and stored at −80 °C until analysis.
Pooled post-24-h plasma samples were extracted using a slightly modified procedure. […] Appropriate volumes of formic acid were added to achieve a final concentration of 1%. Then, the samples were warmed to 37 °C and loaded to preconditioned Oasis HLB cartridges (Waters Corporation, Milford, MA, USA). These columns were then washed with water, dried under vacuum, and eluted with methanol. The eluates were collected and evaporated under nitrogen. The dry residues were reconstituted in 0.1 mL of methanol, and a 0.005-mL aliquot was removed for determination of radioactivity. The remainder of the supernatants were transferred to HPLC vials and stored at −80 °C until analysis.
(§1) A Finnigan Surveyor HPLC system (Thermo Fisher Scientific Inc., San Jose, CA, USA), consisting of an LC pump plus an autosampler and a UV–Vis plus detector, was used mostly for profiling (except the post-24-h plasma samples, which were analyzed using a Dionex HPLC system). A Phenomenex® Gemini® C18, 5-μm, 3.0 × 100-mm column (Phenomenex Inc., Torrance, CA, USA) was used along with a C-12 guard column (4 × 2 mm). LC conditions were as follows: solvent A was 10 mM ammonium bicarbonate in water (pH 10.0) and solvent B was 100% methanol and the flow rate was 0.8 mL/min. The following gradient was employed (B%): 0–5 min (20%), 32 min (42%), 33 min (60%), 55 min (70%), 56–60 min (95%), and 62–70 min (20%).
(§2) Reconstituted solvent extracts (0.050–0.10 mL) of plasma, urine, or feces were injected onto the HPLC column. The post-column eluate was split after UV detection into two streams (0.64 and 0.16 mL/min). The 0.64-mL stream was diverted to a fraction collector (Gilson FX 204; Gilson Medical Electronics, Middleton, WI, USA) to be collected in 96-well plates at 0.16 min/well (ScintiPlates; PerkinElmer Life Sciences, Shelton, CT, USA), and the 0.16-mL stream was directed to the mass spectrometer. The solvent in the 96-well plates was removed at 40 °C using a Genevac evaporator (Genevac, Inc., Stone Ridge, NY, USA).
(§3) The radioactivity counts per minute (CPM) in each well was determined using a MicroBeta scintillation counter (PerkinElmer Life and Analytical Sciences). The resulting CPM vs. time data were processed using Excel (Microsoft Corporation, Seattle, WA, USA). The CPM in each well was background-subtracted (using the average CPM values of the blank region of the HPLC run). Radiochromatographic profiles were obtained by plotting the resulting net CPM values against time after injection. Radioactive peaks in the chromatographic profiles were identified, and the radioactivity in each peak was summed and reported as a percentage of TRA in the HPLC run.

[3] = Metabolite profiling of urine (HPLC-radiochromatography); format: in vivo, human; conditions: 0–72 h pool
Description: Predose and 0–72-h urine samples (grand pool of all six subjects) were prepared. Urine samples (5 mL) were centrifuged, the supernatant was transferred to a 15-mL polypropylene tube and placed on ice; the residues were extracted with 1 mL of methanol and the methanol extracts were added to the supernatants. The combined extracts were evaporated under nitrogen and reconstituted in 0.2 mL of methanol. A 0.010-mL aliquot of the reconstituted solution was removed for determination of radioactivity, and the remainder was transferred to HPLC vials and stored at −80 °C.
as §1, §2, §3

[4] = test system: BCR–ABL; experiment: In vitro kinase activity screen against BCR–ABL (data not shown); format: biochemical
[5] = target: T1, BCR–ABL (Homo sapiens, UniProt P00519+P11274); experiment: In vitro cellular activity screen against BCR–ABL (data not shown); format: cell-based
T1 sequence (P00519 229-512 limits assumed): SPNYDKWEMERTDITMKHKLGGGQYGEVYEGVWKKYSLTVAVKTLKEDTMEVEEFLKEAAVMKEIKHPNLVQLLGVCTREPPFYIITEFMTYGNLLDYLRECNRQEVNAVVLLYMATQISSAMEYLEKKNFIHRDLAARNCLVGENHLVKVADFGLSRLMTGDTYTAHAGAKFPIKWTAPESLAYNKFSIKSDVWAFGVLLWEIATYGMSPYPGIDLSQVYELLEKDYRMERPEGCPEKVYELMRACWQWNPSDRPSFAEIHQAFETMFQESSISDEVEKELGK

[6] = Metabolite characterization by LC/MS/MS in human plasma, urine, and feces; conditions: human plasma, urine, feces; LC/MS/MS
Description: The remaining eluate stream of 0.16 mL/min from the HPLC runs was diverted to the inlet of the mass spectrometer. The samples were analyzed using a heated electrospray ionization probe. Full-scan positive ion MS data were collected using Finnigan Exactive (MS^1) or Q-Exactive (MS^1 and MS^2) mass spectrometers (Thermo Fisher Scientific Inc.) Exact conditions are described in the Online Resource 3.
Finnigan Exactive or Q-Exactive mass spectrometers (Thermo Fisher Scientific Inc., San Jose, CA) were used to collect full scan MS^1 and MS^2 data.

Row | Structure (SMILES) | time postdose at which C max / maximal levels in plasma were observed ([1]; human plasma) [h] | concentration at 144 h ([1]; male, human, plasma, 45 mg) [nM] | % Distribution in plasma ([2]; 0–24 h pooled plasma) [%] | % Distribution in plasma ([2]; 5 h pooled plasma) | % Distribution in plasma ([2]; 10 h pooled plasma) [%] | % Distribution in plasma ([2]; 12 h pooled plasma) [%] | % Distribution in plasma ([2]; 36 h pooled plasma) [%] | % Distribution in plasma ([2]; 48 h pooled plasma) | % Distribution in plasma ([2]; 72 h pooled plasma) | % Distribution in plasma ([2]; 96 h pooled plasma) | activity against BCR–ABL, kinase screen [4] | activity against BCR–ABL, cellular activity screen [5] | Matrix (in which the metabolite was found) [6] | also measured
1 | Cc1ccc(C(=O)O)cc1C#Cc1cnc2cccnn12 [M14, 3-(imidazo[1,2-b]pyridazin-3-ylethynyl)-4-methylbenzoic acid] | 2 to 12 | < 2.4 | 14.9 | 29.0% | 10.8 | 12.8 | 2.4 | – (“–” values less than 0.5% are not reported) | – (“–” values less than 0.5% are not reported) | – (“–” values less than 0.5% are not reported) | inactive | inactive | P, U | plasma level at 144 h postdose ([1]; human plasma, 144 h postdose): at or below detectable limits; AUC(0-inf) ([1]; male, human, plasma, po, 45 mg): 0.181 µM·h; AUC(0-t) ([1]; male, human, plasma, po, 45 mg): 0.169 µM·h; Cmax ([1]; male, human, plasma, po, 45 mg): 5 nM; Tmax ([1]; male, human, plasma, po, 45 mg): 5 h; half-life ([1]; male, human, plasma, po, 45 mg): 33.7 h; % of total radioactive dose [3]: 0.3%; % Distribution in matrix ([3]; % of urinary TRA): 5.6%
2 | Cc1ccc(C(=O)Nc2ccc(C(=O)O)c(C(F)(F)F)c2)cc1C#Cc1cnc2cccnn12 [M23, 4-(3-(imidazo[1,2-b]pyridazin-3-ylethynyl)-4-methylbenzamido)-2-(trifluoromethyl)benzoic acid] | 36 | < 3 | 7 | – (“–” values less than 0.5% are not reported) | 3.4 | 2.4 | 3.9 | 5.4% | 10.7% | 6.0% | inactive | inactive | P, U, F | 

Source: PMC5344956 (Cancer Chemotherapy and Pharmacology, 2017)
